In assay [1] the test system is P. aeruginosa with blaNDM-1. Nature of the assay: MIC of β-lactam antibiotics by E-test method. In kind it is cell-based. The following applies: Pseudomonas aeruginosa, 24 h. How it is done: (§1) E. coli BL21(DE3) cells were transformed with the pET30a plasmid encoding the NDM-1 gene (Gen Bank ID: HQ162469). E. coli BL21(DE3)/pET30a-NDM-1 was grown overnight at 37°C in liquid Luria-Bertani (LB) broth containing 50μg/ml kanamycin, 100μg/ml ampicillin and 50μM Zn(NO3)2 to select for E. coli clones containing the plasmid of pET30a-NDM-1. Two strains, E. coli BL21 (DE3)/pET30a-NDM-1 overexpressing NDM-1 and P. aeruginosa isolated from Renmin Hospital of Wuhan University with blaNDM-1 confirmed by PCR (data not shown), were cultured overnight, respectively. The cultures were diluted 1:100, grown to an optical density at 600 nm (OD600) of ~0.6, and spread onto LB agar. After naturally drying for five minutes, E-test strips (AB Biodisk, Solna, Sweden) were applied to the ~150mm Mueller-Hinton (MH) (Tianhe Microbial Agents, Hangzhou, China) agar plates and grown for 24h at 35°C to 37°C without further intervention. The antibiotic strips respectively containing penicillin G, ampicillin, cephalothin, cefuroxime, ceftazidime, cefepime, meropenem, ertapenem, aztreonam were used for testing susceptibility. The results were obtained in accordance with the Clinical and Laboratory Standards Institute (CLSI) guidelines.

Assay [2] has as its system E. coli BL21 (DE3)/pET30a-NDM-1. Nature of the assay: MIC of β-lactam antibiotics by E-test method. In kind it is cell-based. To be noted: Escherichia coli, 24 h. Here is the method: as §1
In the next assay the test system is E. coli BL21 (DE3). Nature of the assay: MIC of β-lactam antibiotics by E-test method. In kind it is cell-based. To be noted: Escherichia coli, 24 h.
Assay [3] concerns E. coli BL21 (DE3)/pET30a. Nature of the assay: MIC of β-lactam antibiotics by E-test method. In kind it is cell-based. To be noted: Escherichia coli, 24 h.
Assay [4] concerns E. coli BL21 (DE3)/pET30a-NDM-1. As to the kind of experiment: Synergistic antibacterial effect of ertapenem combined with oligopeptide (twofold broth dilution). In kind it is cell-based. The following applies: ertapenem alone at 256 μg/ml; NDM-1 strain. Here is the method: E. coli BL21 (DE3)/pET30a-NDM-1 overexpressing NDM-1 and a clinical isolate of P. aeruginosa with blaNDM-1 were also utilized to evaluate the bioactivities of oligopeptides, which reversed NDM-1-mediated β-lactam antibiotics resistance. Determination of antibacterial synergy was performed using a serial twofold dilutions method recommended by CLSI guidelines. E. coli BL21 (DE3)/pET30a was used as a control in the experiment. Minimum inhibitory concentrations (MICs) of the agents were determined by the twofold serial dilution with Mueller-Hinton (MH) broth (Shifeng Biotech Corp., Shanghai, China). For this assay, E. coli BL21 (DE3)/pET30a-NDM-1 was grown overnight in MH broth media containing 50μg/ml kanamycin at 37°C [23]. β-lactam antibiotic and oligopeptide at various concentrations were added to 120μL broth media of a 1:20 dilution of the overnight culture, resulting the final volume of 150μL [24]. The growth of bacterial cultures was set up in 96-well microplates, which incubated at 37°C with constant shaking continuously for 18 h and a reading at 630 nm was taken to determine the MICs of synergistic effect. The lowest antibiotic concentration preventing visible growth was deemed to be the MIC value. […] Every data of reading was repeated thrice, and each experiment mentioned above was performed at least two times.
Background: Broth dilution looks for growth in wells or tubes with falling amounts of substance.

Another assay concerns the target full-length NDM-1 (Klebsiella pneumoniae, UniProt C7C422). As to the kind of experiment: biochemical. The following applies: IC50 (Mean±SD), full-length NDM-1, ertapenem 80 μM as substrate, 15 min pre-incubation at 35°C. Here is the method: The full-length NDM-1 enzyme was expressed and purified by a method from a previously published procedure. All the oligopeptides were synthesized by GL Biochem. (Shanghai), Ltd., China, with a purity of >95%. The target of NDM-1 enzyme was pre-incubated with the desired oligopeptide for 15min at 35°C before the assay by adding the inhibitor. The oligopeptides used for testing were dissolved in 10mM phosphate-buffered saline (PBS) buffer (pH7.0), containing dimethyl sulfoxide (DMSO) with the final concentration of 0.25% (V/V). […] Ertapenem (80μM) was used as report substrate. The hydrolysis of the substrate by the NDM-1 was detected by monitoring the variation in absorbance resulting from the opening of the β-lactam ring. All the determinations were made on a spectrophotometer (UV-1750, Shimadzu, Japan) connected to a personal computer. The enzymatic reactions were carried out in a total volume of 100μL. The reaction buffer contained 20mM HEPES buffer, pH7.3, 0.25M NaCl, 1mM 1,4-Dithio-DL-threitol (DTT) (Beinglay Biotech Corp., Wuhan, China), 50μM Zn(NO3)2 and 10mg/ml bovine serum albumin (BSA) preventing NDM-1 denaturation. The ultraviolet (UV) absorbance detector was set at 300 nm, a λ max for ertapenem. The IC50 values were determined more than three times by fitting the concentration dependence of residual enzyme activity to the nonlinear regression (curve fit) using GraphPad Prism (GraphPad Software, La Jolla, America).

Residues, ends and D or L forms follow the SMILES beside them.

Sequence of full-length NDM-1 (C7C422 29-270 limits assumed): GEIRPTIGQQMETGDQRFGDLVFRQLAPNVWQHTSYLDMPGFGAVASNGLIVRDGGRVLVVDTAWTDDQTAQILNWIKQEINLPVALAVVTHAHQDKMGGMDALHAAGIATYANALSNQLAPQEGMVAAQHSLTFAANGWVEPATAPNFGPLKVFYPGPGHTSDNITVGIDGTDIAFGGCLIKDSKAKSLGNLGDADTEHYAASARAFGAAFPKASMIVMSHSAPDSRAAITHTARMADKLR

For `CC1(C)S[C@@H]2[C@H](NC(=O)[C@H](N)c3ccccc3)C(=O)N2[C@H]1C(=O)O` [Ampicillin], the MIC in assay [1] was above 256 µg/mL; in assay [2] it was above 256 µg/mL; with E. coli BL21 (DE3), 6 µg/mL; in assay [3], 8 µg/mL.

For the molecule `C[C@H]1[C@H](NC(=O)/C(=N\OC(C)(C)C(=O)O)c2csc(N)n2)C(=O)N1S(=O)(=O)O` [Aztreonam], the minimal inhibitory concentration (MIC) in assay [1] was above 256 µg/mL; in assay [2], above 256 µg/mL; in the assay on E. coli BL21 (DE3), 0.047 µg/mL; in assay [3], 0.064 µg/mL.

Consider `CO/N=C(\C(=O)N[C@@H]1C(=O)N2C(C(=O)[O-])=C(C[N+]3(C)CCCC3)CS[C@H]12)c1csc(N)n1` [Cefepime], for which the MIC in assay [1] is above 64 µg/mL; in assay [2], above 64 µg/mL; with E. coli BL21 (DE3) it was 0.08 µg/mL; in assay [3] it was 0.08 µg/mL.

Turning to `CO/N=C(\C(=O)N[C@@H]1C(=O)N2C(C(=O)O)=C(COC(C)=O)CS[C@H]12)c1csc(N)n1` [Cefotaxime], the MIC in assay [1] is above 256 µg/mL; in assay [2], above 256 µg/mL; in the assay on E. coli BL21 (DE3), 0.125 µg/mL; in assay [3] it was 0.25 µg/mL.

Turning to `CC(C)(O/N=C(\C(=O)N[C@@H]1C(=O)N2C(C(=O)[O-])=C(C[n+]3ccccc3)CS[C@H]12)c1csc(N)n1)C(=O)O` [Ceftazidime], the MIC is above 256 µg/mL in assay [1], above 256 µg/mL in assay [2], 0.38 µg/mL in the assay on E. coli BL21 (DE3) and 0.25 µg/mL in assay [3].

As to `CO/N=C(\C(=O)N[C@@H]1C(=O)N2C(C(=O)O)=C(COC(N)=O)CS[C@H]12)c1ccco1` [Cefuroxime], the MIC in assay [1] was 256 µg/mL; in assay [2], above 256 µg/mL; with E. coli BL21 (DE3), 2 µg/mL; in assay [3], 3 µg/mL.

As to `CC(=O)OCC1=C(C(=O)O)N2C(=O)[C@@H](NC(=O)Cc3cccs3)[C@H]2SC1` [Cephalothin], the MIC in assay [1] is above 256 µg/mL; in assay [2], above 256 µg/mL; in the assay with E. coli BL21 (DE3) it was 6 µg/mL; in assay [3], 4 µg/mL.

For the molecule `C[C@@H](O)[C@H]1C(=O)N2C(C(=O)O)=C(S[C@@H]3CN[C@H](C(=O)Nc4cccc(C(=O)O)c4)C3)[C@H](C)[C@H]12` [Ertapenem], the MIC in assay [1] is above 32 µg/mL; in assay [2], above 32 µg/mL; in the assay on E. coli BL21 (DE3), 0.094 µg/mL; in assay [3], 0.094 µg/mL. Also, the “growth in broth media containing ertapenem” value in assay [4] is “still able to grow”.

With `C[C@@H](O)[C@H]1C(=O)N2C(C(=O)O)=C(S[C@@H]3CN[C@H](C(=O)N(C)C)C3)[C@H](C)[C@H]12` [Meropenem], the MIC in assay [1] was above 32 µg/mL; in assay [2] it was above 32 µg/mL; in the assay on E. coli BL21 (DE3), 0.032 µg/mL; in assay [3], 0.047 µg/mL.

On to `N[C@@H](CS)C(=O)N[C@@H](Cc1c[nH]cn1)C(=O)O` [Oligopeptide 1, Cys-His] (H-Cys-His-OH), for which the IC50 on full-length NDM-1 worked out at 182 ± 14 µM.

On full-length NDM-1, `N[C@@H](CS)C(=O)N[C@@H](Cc1ccccc1)C(=O)O` [Oligopeptide 2, Cys-Phe] (H-Cys-Phe-OH) came in with an IC50 of 113 ± 9 µM.

For `N[C@@H](CS)C(=O)N[C@@H](Cc1ccc(O)cc1)C(=O)O` [Oligopeptide 3, Cys-Tyr] (H-Cys-Tyr-OH), the IC50 at full-length NDM-1 is above 300 µM.

Molecule `CC(C)[C@H](NC(=O)[C@@H](N)CS)C(=O)O` [Oligopeptide 4, Cys-Val] (H-Cys-Val-OH) showed an IC50 against full-length NDM-1 of 235 ± 18 µM.

On to `N[C@@H](CS)C(=O)N[C@@H](CC(=O)O)C(=O)O` [Oligopeptide 5, Cys-Asp] (H-Cys-Asp-OH), for which the IC50 on full-length NDM-1 amounted to 68 ± 5 µM.

With `N[C@@H](CS)C(=O)NCC(=O)N[C@@H](Cc1c[nH]cn1)C(=O)O` [Oligopeptide 6, Cys-Gly-His] (H-Cys-Gly-His-OH), inhibition against full-length NDM-1 was half-maximal at 263 ± 21 µM (IC50).

As to `N[C@@H](CS)C(=O)NCC(=O)N[C@@H](Cc1ccccc1)C(=O)O` [Oligopeptide 7, Cys-Gly-Phe] (H-Cys-Gly-Phe-OH), the IC50 against full-length NDM-1 was determined as 144 ± 13 µM.

For the molecule `N[C@@H](CS)C(=O)NCC(=O)N[C@@H](Cc1ccc(O)cc1)C(=O)O` [Oligopeptide 8, Cys-Gly-Tyr] (H-Cys-Gly-Tyr-OH), at full-length NDM-1, the IC50 is above 300 µM.

With `CC(C)[C@H](NC(=O)CNC(=O)[C@@H](N)CS)C(=O)O` [Oligopeptide 9, Cys-Gly-Val] (H-Cys-Gly-Val-OH), the IC50 against full-length NDM-1 is 249 ± 21 µM.

Take `N[C@@H](CS)C(=O)NCC(=O)N[C@@H](CC(=O)O)C(=O)O` [Oligopeptide 10, Cys-Gly-Asp] (H-Cys-Gly-Asp-OH): the IC50 against full-length NDM-1 is above 300 µM.

On to `CC1(C)S[C@@H]2[C@H](NC(=O)Cc3ccccc3)C(=O)N2[C@H]1C(=O)O` [Penicillin G], for which the MIC is above 32 µg/mL in assay [1], above 32 µg/mL in assay [2], 12 µg/mL in the assay on E. coli BL21 (DE3) and 12 µg/mL in assay [3].

By MIC is commonly meant the lowest concentration that inhibits growth of the organism. The term IC50 denotes the point on the concentration scale where inhibition reaches its midpoint. Read a low IC50 as higher potency.

(Values after publication PMC5441612, “Oligopeptides as full-length New Delhi metallo-β-lactamase-1 (NDM-1) inhibitors” (PLoS ONE, 2017).)
